Consider 26 compounds from patent US10730887B2, “Compound containing tricyclic heteroaryl group” (Hangzhou Innogate Pharma Co., Ltd., priority 2016, dated 2020).

Holding throughout (format): biochemical
In test [1] the target is EGFR (T790M/L858R) (Homo sapiens, UniProt P00533, L858R/T790M). The experiment in a line: EGFR (T790M/L858R) kinase activity inhibition, Caliper mobility shift assay. The protocol:
(§1) EGFR and EGFR (T790M/L858R) protein kinase activities were determined using the Caliper mobility shift assay. The compound was dissolved in DMSO and diluted with kinase buffer (EGFR (T790M/L858R): 50 mM HEPES at pH 7.5, 0.0015% Brij-35, 10 mM MgCl2, 2 mM DTT; EGFR: pH 7.5 50 mM HEPES, 0.0015% Brij-35, 10 mM MgCl2, 10 mM MnCl2, 2 mM DTT), 5 μL of 5 times the final concentration of the compound (10% DMSO) was added to a 384-well plate. Add 10 μL of 2.5-fold enzyme (using EGFR and EGFR (1790M/L858R), respectively) and incubate for 10 minutes at room temperature, then add 10 μL of 2.5-fold substrate (Peptide FAM-P22 and ATP) solution. After incubation at 28° C. for 60 minutes, the reaction was stopped by adding 25 μL of stop solution (100 mM HEPES, 0.015% Brij-35, 0.2% Coating Reagent #3, 50 mM EDTA, pH 7.5). Conversion rate data was read on a Caliper EZ Reader II (Caliper Life Sciences). The conversion rate was converted into inhibition rate data (% inhibition rate=(max−conversion rate)/(max−min)*100). Where max is the conversion of the DMSO control and min is the conversion of the enzyme-free control Curves were plotted with compound concentration and inhibition rate on the horizontal and vertical coordinates, and the curve was fitted using XLFit excel add-in version 4.3.1 software and IC50 was calculated.

Test [2] addresses EGFR (Homo sapiens, UniProt P00533). The experiment in a line: EGFR kinase activity inhibition, Caliper mobility shift assay. The protocol: as §1
Test [3] has as its target SYK (Homo sapiens, UniProt P43405). As to the kind of experiment: Syk kinase activity inhibition, Caliper mobility shift assay. The protocol: SYK protein kinase activity was determined using the Caliper mobility shift assay. The compound was dissolved in DMSO and diluted with kinase buffer (20 mM HEPES, 0.01% Triton X-100, 5 mM MgCl2, 1 mM MnCl2, 2 mM DTT), and 5 μL of 5 times final concentration was added to the 384-well plate Compound (10% DMSO). After adding 10 μL of 2.5-fold enzyme (with SYK) solution, incubate for 10 minutes at room temperature, and then add 10 μL of 2.5-fold substrate (Peptide FAM-P22 and ATP) solution. Incubate at 28° C. for 30 minutes, then stop the reaction by adding 25 μL of stop solution (100 mM HEPES, 0.015% Brij-35, 0.2% Coating Reagent #13, 50 mM EDTA, pH 7.5). Conversion rate data was read on a Caliper EZ Reader II (Caliper Life Sciences) The conversion rate was converted into inhibition rate data (% inhibition rate=(max−conversion rate)/(max−min)*100). Where max is the conversion of the DMSO control and min is the conversion of the enzyme-free control. Curves were plotted with compound concentration and inhibition rate on the horizontal and vertical coordinates, and the curve was fitted using XLFit excel add-in version 4.3.1 software and IC50 was calculated.

The target in test [4] is Jak2 (Homo sapiens, UniProt O60674). As to the kind of experiment: Jak2 kinase activity inhibition, Caliper Reader. The procedure:
Kinase JAk1 and Jak2 enzyme inhibition IC50 evaluation experiments: The buffer was configured with the following components: 50 mM HEPES, pH 7.5, 0.00015% Brij-35. Compounds were placed in a concentration gradient in 100% DMSO and diluted to 10% DMSO with buffer and added to 384 well plates. For example, when the initial concentration of the compound is […], it is made into 12.5 μM with 100% DMSO, and diluted by 5 or 6 concentrations, and then diluted 10-fold with buffer to prepare an intermediate dilution of the compound containing 10% DMSO. Transfer 5 μL, to 384-well plate. The Jak1 and Jak2 enzymes were diluted to the optimal concentration with the following buffer: 50 mM HEPES, pH 7.5, 0.00015% Brij-35, 2 mM DTT. Transfer 10 μL to a 384-well plate and incubate with the compound for 10-15 minutes. The substrate was diluted to the optimal concentration with the following buffer: 50 mM HEPES, pH 7.5, 0.00015% Brij-35, 10 mM MgCl2, adenosine triphosphate at Km. The reaction was initiated by adding 10 μL to a 384-well plate and reacted at 28° C. for 1 hour. The conversion rate was then read using a Caliper Reader and the inhibition rate was calculated. The formula is as follows: Percent inhibition=(max−conversion)/(max−min)*100. Where max is the conversion of the DMSO control and min is the conversion of the enzyme-free control. Fit the IC50 value with XLFit excel add-in version 5.4.0.8. Fitting formula: Y=Bottom+(Top−Bottom)/(1+(IC50/X)^HillSlope).

Sequence of EGFR (P00533 25-1210): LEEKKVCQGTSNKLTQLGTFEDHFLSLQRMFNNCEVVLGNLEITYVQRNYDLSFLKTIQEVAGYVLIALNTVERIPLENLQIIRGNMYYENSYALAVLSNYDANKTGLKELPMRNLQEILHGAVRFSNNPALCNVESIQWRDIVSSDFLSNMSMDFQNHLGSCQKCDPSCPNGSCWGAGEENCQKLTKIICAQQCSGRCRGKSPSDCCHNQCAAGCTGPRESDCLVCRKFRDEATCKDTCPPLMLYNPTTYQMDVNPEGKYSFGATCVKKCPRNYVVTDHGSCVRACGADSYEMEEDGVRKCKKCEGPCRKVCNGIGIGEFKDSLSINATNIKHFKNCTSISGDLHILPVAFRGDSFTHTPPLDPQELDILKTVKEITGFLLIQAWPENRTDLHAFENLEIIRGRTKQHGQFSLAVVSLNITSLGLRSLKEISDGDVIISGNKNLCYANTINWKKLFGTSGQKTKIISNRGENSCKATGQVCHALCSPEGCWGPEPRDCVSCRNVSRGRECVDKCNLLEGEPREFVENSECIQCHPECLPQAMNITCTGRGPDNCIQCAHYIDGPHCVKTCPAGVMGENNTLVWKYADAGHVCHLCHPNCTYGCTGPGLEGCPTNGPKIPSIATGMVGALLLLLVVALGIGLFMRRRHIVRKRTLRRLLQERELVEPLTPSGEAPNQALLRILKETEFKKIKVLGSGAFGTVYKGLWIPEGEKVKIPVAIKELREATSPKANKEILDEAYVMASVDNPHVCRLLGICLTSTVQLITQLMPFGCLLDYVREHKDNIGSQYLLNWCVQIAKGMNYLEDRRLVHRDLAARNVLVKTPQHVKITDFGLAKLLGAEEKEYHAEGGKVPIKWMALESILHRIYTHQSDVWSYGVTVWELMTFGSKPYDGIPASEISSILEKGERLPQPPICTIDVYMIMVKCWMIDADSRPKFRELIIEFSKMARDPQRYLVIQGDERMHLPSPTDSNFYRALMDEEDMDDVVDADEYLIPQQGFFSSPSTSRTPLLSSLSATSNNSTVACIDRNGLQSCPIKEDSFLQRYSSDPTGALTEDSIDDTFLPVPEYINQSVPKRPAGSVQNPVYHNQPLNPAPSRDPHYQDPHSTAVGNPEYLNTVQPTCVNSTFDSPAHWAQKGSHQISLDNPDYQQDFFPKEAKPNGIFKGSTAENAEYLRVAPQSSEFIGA
Sequence of Jak2 (O60674 whole entry, species assumed): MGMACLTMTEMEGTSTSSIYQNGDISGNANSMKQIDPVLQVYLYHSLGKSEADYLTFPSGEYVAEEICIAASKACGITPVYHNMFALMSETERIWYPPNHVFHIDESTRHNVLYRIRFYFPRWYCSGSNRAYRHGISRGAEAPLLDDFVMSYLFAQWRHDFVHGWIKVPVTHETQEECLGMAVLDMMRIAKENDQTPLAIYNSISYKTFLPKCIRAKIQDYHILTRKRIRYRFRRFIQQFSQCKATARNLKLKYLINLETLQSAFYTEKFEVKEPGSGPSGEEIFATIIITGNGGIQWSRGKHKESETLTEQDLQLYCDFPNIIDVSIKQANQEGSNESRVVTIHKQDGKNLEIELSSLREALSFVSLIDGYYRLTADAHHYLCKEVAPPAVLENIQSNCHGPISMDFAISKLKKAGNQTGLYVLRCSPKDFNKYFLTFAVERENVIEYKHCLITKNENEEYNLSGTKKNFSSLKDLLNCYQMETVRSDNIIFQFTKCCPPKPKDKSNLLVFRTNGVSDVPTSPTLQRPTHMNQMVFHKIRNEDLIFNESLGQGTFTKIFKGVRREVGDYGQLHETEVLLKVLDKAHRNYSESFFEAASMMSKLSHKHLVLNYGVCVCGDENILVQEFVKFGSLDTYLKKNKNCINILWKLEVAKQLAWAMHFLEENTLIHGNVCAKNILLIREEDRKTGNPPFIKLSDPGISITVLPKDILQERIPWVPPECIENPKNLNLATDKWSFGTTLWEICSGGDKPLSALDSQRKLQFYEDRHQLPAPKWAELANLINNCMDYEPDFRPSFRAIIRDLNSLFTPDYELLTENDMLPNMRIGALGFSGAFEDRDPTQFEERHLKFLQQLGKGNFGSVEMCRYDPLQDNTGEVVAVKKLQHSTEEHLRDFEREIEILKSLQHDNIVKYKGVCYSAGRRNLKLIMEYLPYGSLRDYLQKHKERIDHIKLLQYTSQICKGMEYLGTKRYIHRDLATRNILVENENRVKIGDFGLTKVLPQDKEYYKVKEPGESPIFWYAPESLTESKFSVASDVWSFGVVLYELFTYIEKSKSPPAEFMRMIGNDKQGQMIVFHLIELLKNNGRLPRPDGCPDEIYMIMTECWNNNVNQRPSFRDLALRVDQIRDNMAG
Sequence of EGFR (T790M/L858R) (P00533 25-1210 T790M/L858R): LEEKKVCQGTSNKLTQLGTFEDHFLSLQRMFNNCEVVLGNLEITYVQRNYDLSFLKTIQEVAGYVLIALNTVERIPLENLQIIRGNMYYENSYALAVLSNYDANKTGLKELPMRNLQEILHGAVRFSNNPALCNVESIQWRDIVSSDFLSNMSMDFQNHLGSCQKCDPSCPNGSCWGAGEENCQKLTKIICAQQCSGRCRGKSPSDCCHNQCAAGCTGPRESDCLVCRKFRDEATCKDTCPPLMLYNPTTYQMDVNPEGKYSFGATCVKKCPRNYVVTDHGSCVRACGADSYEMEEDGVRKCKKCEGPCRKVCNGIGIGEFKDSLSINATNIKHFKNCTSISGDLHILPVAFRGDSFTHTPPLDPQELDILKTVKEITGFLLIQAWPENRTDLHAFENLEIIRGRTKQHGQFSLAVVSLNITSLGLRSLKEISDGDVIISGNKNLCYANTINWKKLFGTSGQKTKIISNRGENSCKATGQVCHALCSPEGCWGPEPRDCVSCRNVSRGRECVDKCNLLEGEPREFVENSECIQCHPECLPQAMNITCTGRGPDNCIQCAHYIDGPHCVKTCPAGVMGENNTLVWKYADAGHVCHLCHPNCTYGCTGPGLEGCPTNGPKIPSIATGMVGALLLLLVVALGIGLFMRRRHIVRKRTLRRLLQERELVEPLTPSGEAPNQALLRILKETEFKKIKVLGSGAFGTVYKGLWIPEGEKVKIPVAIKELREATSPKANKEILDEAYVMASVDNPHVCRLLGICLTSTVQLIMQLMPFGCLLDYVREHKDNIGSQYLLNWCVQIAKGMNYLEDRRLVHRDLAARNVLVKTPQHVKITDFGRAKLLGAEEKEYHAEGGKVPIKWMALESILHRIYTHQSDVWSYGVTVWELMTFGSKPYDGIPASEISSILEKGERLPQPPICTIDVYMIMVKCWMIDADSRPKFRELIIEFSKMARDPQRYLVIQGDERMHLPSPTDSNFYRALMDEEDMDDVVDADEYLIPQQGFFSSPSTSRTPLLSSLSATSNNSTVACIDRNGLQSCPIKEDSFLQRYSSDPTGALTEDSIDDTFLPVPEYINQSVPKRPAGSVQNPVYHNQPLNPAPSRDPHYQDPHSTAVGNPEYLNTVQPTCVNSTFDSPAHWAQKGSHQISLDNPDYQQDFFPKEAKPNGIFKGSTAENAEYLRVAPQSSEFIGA

As usually defined, the IC50 is the concentration needed to halve the response being measured. Regarding `C=CC(=O)Nc1cccc(Nc2nc(Nc3ccc4c(c3)OC[C@H]3CN(C)CCN43)ncc2C(F)(F)F)c1` [Compound A1R], the results for the IC50 in test [1] and in test [2] were under 0.001 µM and under 0.1 µM, respectively.
As for `C=CC(=O)Nc1cccc(Nc2nc(Nc3ccc4c(c3)OC[C@@H]3CN(C)CCN43)ncc2C(F)(F)F)c1` [Compound A1S], the figures for the IC50 in test [1] and in test [2] were under 0.001 µM and under 0.1 µM, respectively.
As to `C=CC(=O)Nc1cccc(Nc2nc(Nc3ccc4c(c3)OCC3CN(C)CCN43)ncc2C(F)(F)F)c1` (stereo not drawn) [Compound A1], the IC50 in test [1] was under 0.01 µM; in test [2], under 0.1 µM.
Take `C=CC(=O)Nc1cccc(Nc2nc(Nc3ccc4c(c3)OC[C@H]3CN(C(C)=O)CCN43)ncc2C(F)(F)F)c1` [Compound A2R]: the figures for the IC50 in test [1] and in test [2] were under 0.01 µM and under 0.1 µM, respectively.
For the compound `C=CC(=O)Nc1cccc(Nc2nc(Nc3ccc4c(c3)OC[C@@H]3CN(C(C)=O)CCN43)ncc2C(F)(F)F)c1` [Compound A2S], the IC50 in test [1] was under 0.01 µM; in test [2], under 0.1 µM.
In the same order, the values of `C=CC(=O)Nc1cccc(Nc2nc(Nc3ccc4c(c3)OC[C@H]3CNCCN43)ncc2C(F)(F)F)c1` [Compound A3R] are under 0.001 µM and under 0.05 µM.
`C=CC(=O)Nc1cccc(Nc2nc(Nc3ccc4c(c3)OC[C@@H]3CNCCN43)ncc2C(F)(F)F)c1` [Compound A3S]: in test [1], the IC50 is under 0.001 µM.
Regarding `C=CC(=O)Nc1cccc(Nc2nc(Nc3ccc4c(c3)OC[C@H]3CN(C(=O)C(F)(F)F)CCN43)ncc2C(F)(F)F)c1` [Compound A4R], the half-maximal inhibitory concentration (IC50) in test [1] was under 0.01 µM; in test [2], under 0.1 µM.
On to `C=CC(=O)Nc1cccc(Nc2nc(Nc3ccc4c(c3)OC[C@H]3CN(CC)CCN43)ncc2C(F)(F)F)c1` [Compound A5R], for which the IC50 in test [1] is under 0.001 µM; in test [2], under 0.1 µM.
As to `C=CC(=O)Nc1cccc(Nc2nc(Nc3ccc4c(c3)OC[C@H]3CN(C5CC5)CCN43)ncc2C(F)(F)F)c1` [Compound A6R], the IC50 is under 0.01 µM in test [1] and under 0.1 µM in test [2].
For `C=CC(=O)Nc1cccc(Nc2nc(Nc3ccc4c(c3)OC[C@H]3CN(CC(F)(F)F)CCN43)ncc2C(F)(F)F)c1` [Compound A7R], the IC50 in test [1] is under 0.05 µM; in test [2], under 0.5 µM.
In the same order, the values of `C=CC(=O)Nc1cccc(Nc2nc(Nc3ccc4c(c3)OC[C@H]3COCCN43)ncc2C(F)(F)F)c1` [Compound A8R] are under 0.01 µM and under 0.1 µM.
Turning to `C=CC(=O)Nc1cccc(Nc2nc(Nc3ccc4c(c3)OC[C@@H]3COCCN43)ncc2C(F)(F)F)c1` [Compound A8S], the half-maximal inhibitory concentration (IC50) in test [1] is under 0.01 µM; in test [2], under 0.1 µM.
Turning to `C=CC(=O)Nc1cccc(Nc2nc(Nc3ccc4c(c3)OC[C@H]3CN(C)CC(=O)N43)ncc2C(F)(F)F)c1` [Compound A9R], the IC50 is under 0.01 µM in test [1] and under 0.1 µM in test [2].
In the same order, the values of `C=CC(=O)Nc1cccc(Nc2nc(Nc3ccc4c(c3)OC[C@@H]3CN(C)CC(=O)N43)ncc2C(F)(F)F)c1` [Compound A9S] are under 0.01 µM and under 0.1 µM.
For `CC(C)(C)OC(=O)N1CCN2c3ccc(Nc4ncc(C(N)=O)c(NC5CC5)n4)cc3OC[C@H]2C1` [Compound C7R], the IC50 in test [3] and in test [4] was under 0.05 µM each time.
Turning to `NC(=O)c1cnc(Nc2ccc3c(c2)OC[C@H]2CNCCN32)nc1NC1CC1` [Compound C8R], the IC50 was under 0.05 µM in test [3] and under 0.01 µM in test [4].
For `NC(=O)c1cnc(Nc2ccc3c(c2)OC[C@H]2CN(S(=O)(=O)c4ccccc4)CCN32)nc1NC1CC1` [Compound C9R], the IC50 in test [3] is under 0.01 µM; in test [4], under 0.05 µM.
With `CS(=O)(=O)N1CCN2c3ccc(Nc4ncc(C(N)=O)c(NC5CC5)n4)cc3OC[C@H]2C1` [Compound C11R], the IC50 in test [3] and in test [4] was under 0.01 µM each time.
In the case of `CC(C)S(=O)(=O)N1CCN2c3ccc(Nc4ncc(C(N)=O)c(NC5CC5)n4)cc3OC[C@H]2C1` [Compound C12R], the IC50 in test [3] and in test [4] was under 0.01 µM throughout.
`NC(=O)c1cnc(Nc2ccc3c(c2)OC[C@H]2CN(S(=O)(=O)C4CCOCC4)CCN32)nc1NC1CC1` [Compound C13R]: the IC50 in test [3] and in test [4] was under 0.01 µM each time.
In the case of `CN(C)S(=O)(=O)N1CCN2c3ccc(Nc4ncc(C(N)=O)c(NC5CC5)n4)cc3OC[C@H]2C1` [Compound C14R], the half-maximal inhibitory concentration (IC50) in test [3] and in test [4] was under 0.01 µM in each case.
As for `C=CS(=O)(=O)N1CCN2c3ccc(Nc4ncc(C(N)=O)c(NC5CC5)n4)cc3OC[C@H]2C1` [Compound C15R], the IC50 in test [3] and in test [4] was under 0.05 µM each time.
Turning to `NC(=O)c1cnc(Nc2ccc3c(c2)OC[C@H]2CN(S(N)(=O)=O)CCN32)nc1NC1CC1` [Compound C16R], the IC50 in test [3] and in test [4] was under 0.05 µM each time.
With `CN1CCN2c3ccc(Nc4ncc(C(N)=O)c(NC5CC5)n4)cc3C(=O)CC2C1` (stereo not drawn) [Compound C17], the IC50 in test [3] and in test [4] was under 0.05 µM in each case.
Turning to `NC(=O)c1cnc(Nc2ccc3c(c2)OCC2COCCN32)nc1NC1CC1` (stereo not drawn) [Compound C18R], the IC50 in test [3] and in test [4] was under 0.05 µM in each case.
